Assays:
293T cells [1] = assay: Cell survival rate determination (CCK-8); format: cell-based; conditions: for Cell survival rate (%): LNP formulation containing 1.5 μg Fluc-mRNA, 24 hours, CCK-8, absorbance at 450 nm; for cell survival rate lower than that of YK-101: cell survival rate of YK-101 minus that of named substance; for cell survival rate lower than that of YK-107: cell survival rate of YK-107 minus that of named substance; for cell survival rate lower than that of YK-108: cell survival rate of YK-108 minus that of named substance
Method: (§1) Cell recovery and passage: 293T cells were recovered, cultured in a culture dish, and passaged to the required number of cells.
(§2) Seeding plate: The cells in the culture dish were digested and counted. Cells were spread in a 96-well plate at 10,000 cells per well and in a 12-well plate at 150,000 cells per well. Cells were cultured overnight until the cells adhered to the wall.
An LNP formulation containing 1.5 μg of Fluc-mRNA (the cater component of the LNP formulation were cationic lipid, neutral lipid, structured lipid and polymer-conjugated lipid with a molar ratio of 49: 10: 39.5: 1.5, wherein the cationic lipid was listed in Table 1) and the formulation of Lipofectamine 3000 were added to the cell culture medium of a 96-well plate, and further cultivated for 24 hours. 10 μL of CCK-8 solution was then added to each well, and the culture plate was incubated in an incubator for 1 hour. The absorbance at 450 nm was measured by a microplate reader.

293T cells [2] = assay: Fluorescent detection of Fluc-mRNA (cell transfection efficiency of LNP formulations); format: cell-based; conditions: for Relative light unit (RLU): LNP formulation containing 0.3 μg Fluc-mRNA, 96-well plate, 24 hours; for Multiples (YK-101): RLU of YK-101 / RLU of named substance; for Multiples (YK-107): RLU of YK-107 / RLU of named substance; for Multiples (YK-108): RLU of YK-108 / RLU of named substance; for fluorescence absorption value, times that of HHMA: RLU of named substance / RLU of HHMA; for fluorescence absorption value, times that of Lipofectamine 3000: RLU of named substance / RLU of Lipofectamine 3000; for Ratio relative to SM-102: RLU of named substance / RLU of SM-102; for Fluc-mRNA expression signal intensity, times that of compound 21: RLU of named substance / RLU of compound 21; for fluorescence absorption value, times that of compound 23: RLU of named substance / RLU of compound 23
Method: as §1, §2
Cell recovery and passage: the method was the same as in Example 3.
Seeding plate: the method was the same as in Example 3.
An LNP formulation containing 0.3 μg of Fluc-mRNA (the carrier components of the LNP formulation were cationic lipid, neutral lipid, structured lipid and polymer-conjugated lipid with a molar ratio of 49:10:39.5:1.5, wherein the cationic lipid was listed in Table 1) was added to the cell culture medium of a 96-well plate, and further incubated for 24 hours. The corresponding reagent was added according to the instructions of the Gaussia Luciferase Assay Kit, and the fluorescence expression intensity of each well was detected by an IVIS fluorescence detection system. This test verified the transfection efficiencies of LNP formulations in cells, see Tables 3-6 for specific test results.

BALB/C mice = assay: In vivo imaging of Fluc-mRNA expression in mice delivered by LNP formulations; conditions: for average radiation intensity, 6 h / average radiation intensity, 24 h / average radiation intensity, 48 h / average radiation intensity, 7 d: LNP containing 10 pg Fluc-mRNA, intramuscular, female BALB/C mice
Method: The LNP formulation containing […] Fluc-mRNA was injected intramuscularly into female BALB/C mice aged 4-6 weeks old and weighed 17-19 g, and the mice were intraperitoneally injected with fluorescent imaging substrate at specific time points after administration (6h, 24 h, 48h and 7d), where the mice were allowed to move freely for 5 minutes, and then the average radiation intensity (corresponding to fluorescence expression intensity) of the protein expression of the mRNA carried by the LNP in the mice was detected by the IVIS Spectrum small animal in vivo imaging device. The test results are shown in Tables 11 to 14 and FIGS. 12 to 14.

[3] = highest multiple, time point not stated

Structure (SMILES)	Cell survival rate (%) (293T cells [1])	cell survival rate lower than that of YK-101 (293T cells [1]) [%]	cell survival rate lower than that of YK-107 (293T cells [1]) [%]	cell survival rate lower than that of YK-108 (293T cells [1]) [%]	Relative light unit (RLU) (293T cells [2])	Multiples (YK-101) (293T cells [2])	Multiples (YK-107) (293T cells [2])	Multiples (YK-108) (293T cells [2])	fluorescence absorption value, times that of HHMA (293T cells [2]) [times]	fluorescence absorption value, times that of Lipofectamine 3000 (293T cells [2]) [times]	Ratio relative to SM-102 (293T cells [2])	Fluc-mRNA expression signal intensity, times that of compound 21 (293T cells [2]) [times]	fluorescence absorption value, times that of compound 23 (293T cells [2]) [times]	average radiation intensity of YK-101, times that of named substance (BALB/C mice; 6 h) [times]	average radiation intensity of YK-107, times that of named substance (BALB/C mice; 6 h) [times]	average radiation intensity of YK-108, times that of named substance (BALB/C mice; 6 h) [times]	average radiation intensity, 6 h (BALB/C mice; 6 h)	average radiation intensity, 24 h (BALB/C mice; 24 h)	average radiation intensity, 48 h (BALB/C mice; 48 h)	average radiation intensity, 7 d (BALB/C mice; 7 d)	further results
CCCCCCCCCCOC(=O)CCCN(CCCCCC(=O)OCCC(CCCCCC)CCCCCC)C1CCCC1O (stereo not drawn) [YK-120, 3-hexylnonyl 6-(4-(decyloxy)-4-oxobutyl)((2-hydroxycyclopentyl)amino)hexanoate]	73.43	16.69	17.02	16.43	1403572	14.49	15.93	17.57	0.69	1.31	0.91	1.01	1.09	2.7	2.9	3.6	559000	94779	20832	5052	average radiation intensity of YK-101, times that of named substance (BALB/C mice; 24 h): 11.1 times; average radiation intensity of YK-107, times that of named substance (BALB/C mice; 24 h): 13.7 times; average radiation intensity of YK-108, times that of named substance (BALB/C mice; 24 h): 14.8 times; average radiation intensity of YK-101, times that of named substance (BALB/C mice; 48 h): 8.9 times; average radiation intensity of YK-107, times that of named substance (BALB/C mice; 48 h): 10.9 times; average radiation intensity of YK-108, times that of named substance (BALB/C mice; 48 h): 11.1 times; average radiation intensity of YK-101, times that of named substance (BALB/C mice; 7 d): 2.4 times; average radiation intensity of YK-107, times that of named substance (BALB/C mice; 7 d): 2.6 times; average radiation intensity of YK-108, times that of named substance (BALB/C mice; 7 d): 2.8 times
CCCCCCCCCCOC(=O)CCCN(CCCCCC(=O)OCCC(CCCCCC)CCCCCC)CC(O)CO (stereo not drawn) [YK-114, 3-hexylnonyl 6-(4-(decyloxy)-4-oxobutyl)((2,3-dihydroxypropyl)amino)hexanoate]	68.33	21.79	22.12	21.53	1418926	14.33	15.76	17.38	0.69	1.32	0.92	1.02	1.10	2.8	3.0	3.8	535760	93565	19004	5457	average radiation intensity of YK-101, times that of named substance (BALB/C mice; 24 h): 11.3 times; average radiation intensity of YK-107, times that of named substance (BALB/C mice; 24 h): 13.9 times; average radiation intensity of YK-108, times that of named substance (BALB/C mice; 24 h): 15.0 times; average radiation intensity of YK-101, times that of named substance (BALB/C mice; 48 h): 9.8 times; average radiation intensity of YK-107, times that of named substance (BALB/C mice; 48 h): 11.9 times; average radiation intensity of YK-108, times that of named substance (BALB/C mice; 48 h): 12.1 times; average radiation intensity of YK-101, times that of named substance (BALB/C mice; 7 d): 2.2 times; average radiation intensity of YK-107, times that of named substance (BALB/C mice; 7 d): 2.4 times; average radiation intensity of YK-108, times that of named substance (BALB/C mice; 7 d): 2.6 times; expression amount of mRNA in mice of YK-101, times that of named substance (BALB/C mice; [3]): up to 11 times; expression amount of mRNA in mice of YK-107, times that of named substance (BALB/C mice; [3]): ≤ 13 times
CCCCCCCCCCCOC(=O)CCCN(CCO)CCCCCCC(=O)OCCC(CCCCCC)CCCCCC [YK-108, 3-hexylnonyl 7-(4-(undecyloxy)-4-oxobutyl)((2-hydroxyethyl)amino)heptanoate]	89.86	–	–	–	24660507	0.82	0.91	1.00	–	–	16.07	–	–	–	–	–	2017280	1406010	230360	14194	–
CCCCCCCCCCOC(=O)CCCN(CCO)CCCCCC(=O)OCCC(CCCCCC)CCCCCC [YK-101, 3-hexylnonyl-6-(4-(decyloxy)-4-oxobutyl)((2-hydroxyethyl)amino)hexanoate]	90.12	–	–	–	20335193	1.00	1.10	1.21	–	–	13.25	–	–	–	–	–	1496240	1056210	185905	12165	–
CCCCCCCCCCOC(=O)CCCN(CCCO)CCCCCC(=O)OCC(CCCCCCCC)CCCCCCCC [YK-107, 2-octyldecyl 6-(4-(decyloxy)-4-oxobutyl)((3-hydroxypropyl)amino)hexanoate]	90.45	–	–	–	22361210	0.91	1.00	1.10	–	–	14.58	–	–	–	–	–	1601250	1302640	226170	13288	–
CCCCCCCCC(CCCCCCCC)COC(=O)CCCCCN(CCO)CCCCCC(=O)OCCCSSCCCCC [YK-111]	75.76	14.36	14.69	14.10	1328301	15.31	16.83	18.57	0.65	1.24	0.87	0.96	1.03	2.3	2.4	3.0	661800	99777	20312	5050	cell transfection efficiency, times that of YK-110 (293T cells [2]): 5 times; average radiation intensity of YK-101, times that of named substance (BALB/C mice; 24 h): 10.6 times; average radiation intensity of YK-107, times that of named substance (BALB/C mice; 24 h): 13.1 times; average radiation intensity of YK-108, times that of named substance (BALB/C mice; 24 h): 14.1 times; average radiation intensity of YK-101, times that of named substance (BALB/C mice; 48 h): 9.2 times; average radiation intensity of YK-107, times that of named substance (BALB/C mice; 48 h): 11.1 times; average radiation intensity of YK-108, times that of named substance (BALB/C mice; 48 h): 11.3 times; average radiation intensity of YK-101, times that of named substance (BALB/C mice; 7 d): 2.4 times; average radiation intensity of YK-107, times that of named substance (BALB/C mice; 7 d): 2.6 times; average radiation intensity of YK-108, times that of named substance (BALB/C mice; 7 d): 2.8 times

— patent publication US20260008746A1, “CATIONIC LIPID COMPOUND WITH HIGH EFFICIENCY, LOW TOXICITY AND STABLE EXPRESSION, AND COMPOSITION COMPRISNG SAME” (HANGZHOU TIANLONG PHARMACEUTICAL CO., LTD, priority 2023, published 2026)
